In patent US8389541B2, “Inhibitors of protein tyrosine kinase activity” (MethylGene Inc., priority 2007, dated 2013):

target: T1, VEGF receptor KDR (Homo sapiens, UniProt P35968); test: In vitro receptor tyrosine kinase assay (DELFIA), VEGF receptor KDR; format: biochemical; details: GST-VEGFR2 806-1356, 0.6 uM ATP; read-out: VEGFR IC50
T1 construct: made in house; host or cells: Sf9 cells (Spodoptera frugiperda), baculovirus
Description: In the case of VEGF receptor KDR a 1.6-kb cDNA corresponding to the catalytic domain of VEGFR2 or KDR (Genbank accession number AF035121 amino acid 806 to 1356) is cloned into the Pst I site of the pDEST20 Gateway vector (Invitrogen) for the production of a GST-tagged version of that enzyme.
The GST-VEGFR2806-1356 protein is expressed in Sf9 cells (Spodoptera frugiperda) upon infection with recombinant baculovirus construct.
The supernatant is loaded onto a GST-agarose column (Sigma) equilibrated with PBS pH 7.3. Following a four column volume (CV) wash with PBS pH 7.3+1% Triton X-100 and 4 CV wash with buffer B (50 mM Tris pH 8.0, 20% glycerol and 100 mM NaCl), bound proteins are step eluted with 5 CV of buffer B supplemented with 5 mM DTT and 15 mM glutathion. […] Final GST-VEGFR2806-1356 protein preparations concentrations are about 0.7 mg/ml with purity approximating 70%.

T1 sequence (P35968 806-1356): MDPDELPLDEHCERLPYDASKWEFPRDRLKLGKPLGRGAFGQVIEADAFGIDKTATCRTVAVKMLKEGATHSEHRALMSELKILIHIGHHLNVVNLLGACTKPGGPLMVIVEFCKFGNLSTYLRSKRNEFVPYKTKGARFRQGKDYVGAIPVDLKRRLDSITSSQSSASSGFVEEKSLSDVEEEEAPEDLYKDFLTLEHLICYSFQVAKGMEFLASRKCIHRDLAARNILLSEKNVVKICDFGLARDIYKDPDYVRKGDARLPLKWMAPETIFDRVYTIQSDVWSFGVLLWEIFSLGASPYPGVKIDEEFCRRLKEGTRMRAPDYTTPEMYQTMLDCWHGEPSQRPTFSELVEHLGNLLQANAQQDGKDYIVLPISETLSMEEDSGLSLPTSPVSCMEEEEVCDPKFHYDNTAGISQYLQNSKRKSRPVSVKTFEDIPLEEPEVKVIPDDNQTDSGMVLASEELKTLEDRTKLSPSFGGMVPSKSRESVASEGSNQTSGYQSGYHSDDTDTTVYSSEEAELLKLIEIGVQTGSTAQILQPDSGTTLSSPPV

IC50 [nM]	Structure (SMILES)
< 250	COCCNCc1ccc(-c2cc3nccc(Oc4ccc(NC(=S)NC(=O)Cc5ccccc5OC)cc4F)c3s2)cc1
< 250	O=C(Nc1ccccc1)C1(C(=O)Nc2ccc(Oc3ccnc4cc(-c5ccc(CNCC(F)(F)F)cc5)sc34)c(F)c2)CC1
< 250	COCCNCc1ccc(-c2cc3nccc(Oc4ccc(NC(=S)NC(=O)Cc5ccccc5)cc4F)c3s2)nc1
< 250	COCCNCCc1ccc(-c2cc3nccc(Oc4ccc(NC(=O)CC(=O)Nc5ccccc5)cc4F)c3s2)cc1
< 250	COCCNCc1cnc(-c2cc3nccc(Oc4ccc(NC(=O)C5(C(=O)Nc6ccccc6)CC5)cc4F)c3s2)n1C
< 250	COCCNCc1ccc(-c2cc3nccc(Oc4ccc(NC(=O)CC(=O)Nc5ccccc5)cc4F)c3s2)nc1
< 250	COCCNCc1ccc(-c2cc3nccc(Oc4ccc(NC(=O)CC(=O)Nc5ccc(F)cc5)cc4F)c3s2)nc1
< 250	COCCNCc1cnc(-c2cc3nccc(Oc4ccc(NC(=O)Nc5cc(C)on5)cc4F)c3s2)n1C
< 250	COCCNCc1cccc(-c2cc3nccc(Oc4ccc(NC(=O)Nc5cc(C(F)(F)F)ccc5F)cc4F)c3s2)n1
250 to 500	COCCNCc1cccc(-c2cc3nccc(Oc4ccc(NC(=O)NC5CC5)cc4F)c3s2)n1
< 250	COCCNCc1cnc(-c2cc3nccc(Oc4ccc(NC(=O)NC5CC5)cc4F)c3s2)n1C

Structure (SMILES)	IC50 [nM]
COCCNCc1ccc(-c2cc3nccc(Oc4ccc(NC(=O)C5(C(=O)Nc6ccc(F)cc6)CC5)cc4F)c3s2)nc1 [drawing 354]	< 250

test system: A549 cells; test: Wound healing assay in A549 cells (HGF-stimulated); format: cell-based; details: Homo sapiens, last dose that inhibited gap closing by more than 25%, 24 h, read-out: A549 WOUND_HEALING IC50
Method: Wound healing assay in A549 cells. A549 cells (ATCC) are seeded in DMEM low glucose medium complemented with 10% FBS into 24-well plates at a density of 7.5×10^4 cells/well and grown to confluence (48 h). Inhibitors were added to the medium at a range of doses (0.00032-10 uM) for 3 h at which point a gap is introduced by scraping cells with a P1000 pipette tip. Cells are then stimulated to migrate by the addition of HGF (in the form of conditioned medium from 293T cells over-expressing the human HGF gene) and the culture is continued for 24 h. […] For the purpose of standardization, a control is carried on every assay plates.

IC50 [nM]	Structure (SMILES)
> 1000	COCCNCc1ccc(-c2cc3nccc(Oc4ccc(NC(=S)NC(=O)Cc5ccccc5OC)cc4F)c3s2)cc1
< 250	O=C(Nc1ccccc1)C1(C(=O)Nc2ccc(Oc3ccnc4cc(-c5ccc(CNCC(F)(F)F)cc5)sc34)c(F)c2)CC1
< 250	COCCNCc1ccc(-c2cc3nccc(Oc4ccc(NC(=S)NC(=O)Cc5ccccc5)cc4F)c3s2)nc1
250 to 500	COCCNCCc1ccc(-c2cc3nccc(Oc4ccc(NC(=O)CC(=O)Nc5ccccc5)cc4F)c3s2)cc1
< 250	COCCNCc1cnc(-c2cc3nccc(Oc4ccc(NC(=O)C5(C(=O)Nc6ccccc6)CC5)cc4F)c3s2)n1C
< 250	COCCNCc1ccc(-c2cc3nccc(Oc4ccc(NC(=O)CC(=O)Nc5ccccc5)cc4F)c3s2)nc1
< 250	COCCNCc1ccc(-c2cc3nccc(Oc4ccc(NC(=O)CC(=O)Nc5ccc(F)cc5)cc4F)c3s2)nc1

Structure (SMILES)	IC50 [nM]
COCCNCc1ccc(-c2cc3nccc(Oc4ccc(NC(=O)C5(C(=O)Nc6ccc(F)cc6)CC5)cc4F)c3s2)nc1 [drawing 354]	< 250

test system: DU145 cells; test: Scatter assay in DU145 cells (HGF-stimulated); format: cell-based; details: Homo sapiens, DU-145, last dose that created an inhibitory effect on scattering, 24 h, read-out: DU145 SCATT. INHIB IC50
Method: Scatter assays in DU145. The scatter assay is performed as described previously (Miura H, Nishimura K, Tsujimura A, Matsumiya K, Matsumoto K, Nakamura T, et al. Effects of hepatocyte growth factor on E-cadherin-mediated cell-cell adhesion in DU145 prostate cancer cells. Urology 2001; 58(6):1064-9) for DU145 prostate carcinoma cells with the indicated modifications. In brief, DU145 cells (ATCC) are seeded in 24-well plates at a density of 7×10^3 cells/well in MEM medium complemented with 10% FBS and cultured for 48 h, to allow the formation of small compact colonies of cells. Inhibitors are subsequently added at a range of doses (0.00032-10 uM) for 3 h. Cells are then stimulated to migrate by the addition of HGF (in the form of conditioned medium from 293T cells over-expressing the human HGF gene) and the culture is continued for another 24 h. The IC50 values is defined as the last dose that created an inhibitory effect on scattering. For the purpose of standardization a control is carried on every test plates for the DU145 scattering assays.

IC50 [nM]	Structure (SMILES)
250 to 500	COCCNCc1ccc(-c2cc3nccc(Oc4ccc(NC(=S)NC(=O)Cc5ccccc5OC)cc4F)c3s2)cc1
< 250	O=C(Nc1ccccc1)C1(C(=O)Nc2ccc(Oc3ccnc4cc(-c5ccc(CNCC(F)(F)F)cc5)sc34)c(F)c2)CC1
< 250	COCCNCc1ccc(-c2cc3nccc(Oc4ccc(NC(=S)NC(=O)Cc5ccccc5)cc4F)c3s2)nc1
250 to 500	COCCNCCc1ccc(-c2cc3nccc(Oc4ccc(NC(=O)CC(=O)Nc5ccccc5)cc4F)c3s2)cc1
< 250	COCCNCc1cnc(-c2cc3nccc(Oc4ccc(NC(=O)C5(C(=O)Nc6ccccc6)CC5)cc4F)c3s2)n1C
< 250	COCCNCc1ccc(-c2cc3nccc(Oc4ccc(NC(=O)CC(=O)Nc5ccccc5)cc4F)c3s2)nc1
250 to 500	COCCNCc1ccc(-c2cc3nccc(Oc4ccc(NC(=O)CC(=O)Nc5ccc(F)cc5)cc4F)c3s2)nc1

Structure (SMILES)	IC50 [nM]
COCCNCc1ccc(-c2cc3nccc(Oc4ccc(NC(=O)C5(C(=O)Nc6ccc(F)cc6)CC5)cc4F)c3s2)nc1 [drawing 354]	< 250

target: T2, c-Met (Homo sapiens, UniProt P08581); test: Inhibition of c-Met phosphorylation in MKN45 cells (direct ELISA); format: cell-based; details: 3 h treatment, read-out: CMET ELISA IN MKN45 IC50
T2 construct: endogenous in cells; host or cells: MKN45 gastric carcinoma cells
Description: The following assay is used to determine inhibition of c-Met phosphorylation.
The c-Met receptor is expressed in numerous cancer cell lines derived from tumors of epithelial origin. In MKN45 gastric carcinoma cells the c-Met gene is amplified, resulting in several-fold overexpression of the receptor and its constitutive activation. For this reason constitutively high levels of ERK1/2 are also detected in these cells, independently of HGF-added stimulation (Smolen G A, Sordella R, Muir B, Mohapatra G, Barmettler A, Archibald H, et al. Amplification of MET may identify a subset of cancers with extreme sensitivity to the selective tyrosine kinase inhibitor PHA-665752. Proc Natl Acad Sci USA 2006). We have developed a sensitive method to follow c-Met phosphorylation in these cells. In previous studies with earlier generation c-Met inhibitors, we established that the IC50s for the inhibition of c-Met phosphorylation were identical using this novel ELISA approach and standard western blot procedure, with antibodies directed against the activating autocatalysis tyrosine residues of c-MET (Tyr Y1230-34-35).
Cell treatments: MKN45 cells are seeded into wells of 96-well plates at a density of 3×10^4 cells/well in RPMI medium supplemented with 10% FBS. HA-TPR-RON expressing 293T (clone 18) cells are seeded into wells of 96-well plates at a density of 3×10^4 cells/well in DMEM medium supplemented with 10% FBS. Cells are grown for 48 h prior to treatments with compounds of interest. Inhibitors are added to the medium in triplicate wells at the indicated doses. After 3 h of treatment, media is aspirated and cells are lysed by one freeze-thaw cycle in 50 μL/well hypotonic lysis buffer (25 mM HEPES pH 7.5, 10 mM NaCl with 1 mM 4-(2-aminoethyl)benzenesulfonyl fluoride hydrochloride, 200 μM sodium orthovanadate, 1 mM sodium fluoride, 10 μg/mL of leupeptin, 10 μg/mL of aprotinin/mL, 1 μg/mL of pepstatin and 50 μg/mL Na-p-tosyl-L-lysine chloromethyl ketone hydrochloride.
Detection of phosphorylated c-Met by direct ELISA: Lysate samples (5 μL) from wells of treatment plates are transferred to 80 μL of binding buffer (25 mM HEPES pH 7.5, 200 mM NaCl) in wells of high binding white polysterene 96-well plates (Corning). After an overnight protein binding incubation at 4° C., lysates are aspirated and wells are blocked for 1 h at 37° C. in TBST supplemented with 5% BSA. Plates are incubated with the primary antibodies anti-phospho-Tyrosine (Millipore, 4G10) diluted 1/15000 in TBST supplemented with 5% BSA for 1 h at room temperature. Plates are washed 3 times on a plate washer (SkanWasher, Molecular Devises), and incubated with the reporter antibody […] (Sigma) diluted 1/15000 in TBST supplemented with 5% BSA, for 1 h at room temperature. Plates are washed 3 times with TBST using on a plate washer and subsequently incubated with chemiluminescent substrate solution (ECL, Roche). Luminescence signal is captured on a Polar Star Optima apparatus (BMG LabTech).
Average values of the triplicate samples are used to prepare IC50 curves using a 4-parameter fit model. These curves are calculated using, for example, GraFit 5.0 software. For assay standardization purpose, an internal control is included on each experimental test plate.

T2 sequence (P08581 25-1390): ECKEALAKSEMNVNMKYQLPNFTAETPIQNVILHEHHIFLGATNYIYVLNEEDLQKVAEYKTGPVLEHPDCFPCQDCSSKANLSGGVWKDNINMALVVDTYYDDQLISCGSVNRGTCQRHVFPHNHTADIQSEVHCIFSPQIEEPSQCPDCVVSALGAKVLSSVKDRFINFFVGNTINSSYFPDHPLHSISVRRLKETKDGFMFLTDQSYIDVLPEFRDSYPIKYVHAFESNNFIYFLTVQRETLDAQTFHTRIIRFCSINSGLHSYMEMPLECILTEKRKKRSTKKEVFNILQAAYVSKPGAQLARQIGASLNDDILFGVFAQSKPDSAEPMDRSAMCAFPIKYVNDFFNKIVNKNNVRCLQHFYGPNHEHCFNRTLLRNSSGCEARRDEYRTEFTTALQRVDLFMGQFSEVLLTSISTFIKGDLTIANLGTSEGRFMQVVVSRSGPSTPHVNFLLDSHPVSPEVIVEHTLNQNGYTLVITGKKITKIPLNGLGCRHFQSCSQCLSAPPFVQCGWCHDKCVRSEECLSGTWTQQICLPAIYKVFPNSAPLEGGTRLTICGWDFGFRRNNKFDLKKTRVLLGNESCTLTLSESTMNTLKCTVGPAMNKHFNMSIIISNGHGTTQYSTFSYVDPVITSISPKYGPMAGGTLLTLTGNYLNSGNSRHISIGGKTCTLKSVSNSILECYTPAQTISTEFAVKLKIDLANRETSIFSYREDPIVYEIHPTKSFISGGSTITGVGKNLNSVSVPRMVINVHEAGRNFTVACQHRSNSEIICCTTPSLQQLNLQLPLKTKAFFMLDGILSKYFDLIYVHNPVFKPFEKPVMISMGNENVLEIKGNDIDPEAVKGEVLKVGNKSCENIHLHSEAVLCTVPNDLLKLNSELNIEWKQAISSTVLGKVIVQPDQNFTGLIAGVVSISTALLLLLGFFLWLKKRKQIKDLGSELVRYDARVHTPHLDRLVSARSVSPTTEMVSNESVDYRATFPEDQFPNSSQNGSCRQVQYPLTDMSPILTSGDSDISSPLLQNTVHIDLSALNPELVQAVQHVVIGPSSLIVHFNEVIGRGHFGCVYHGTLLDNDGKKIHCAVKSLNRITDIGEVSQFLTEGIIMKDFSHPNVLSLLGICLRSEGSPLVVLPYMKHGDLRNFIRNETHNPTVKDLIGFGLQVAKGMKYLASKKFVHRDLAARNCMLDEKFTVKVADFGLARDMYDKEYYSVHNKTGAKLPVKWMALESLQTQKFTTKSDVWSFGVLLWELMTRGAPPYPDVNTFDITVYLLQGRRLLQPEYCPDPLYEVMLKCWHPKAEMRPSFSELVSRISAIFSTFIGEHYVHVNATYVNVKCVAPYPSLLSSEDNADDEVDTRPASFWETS

IC50 [nM]	Structure (SMILES)
< 250	COCCNCc1ccc(-c2cc3nccc(Oc4ccc(NC(=S)NC(=O)Cc5ccccc5OC)cc4F)c3s2)cc1
< 250	O=C(Nc1ccccc1)C1(C(=O)Nc2ccc(Oc3ccnc4cc(-c5ccc(CNCC(F)(F)F)cc5)sc34)c(F)c2)CC1
< 250	COCCNCc1ccc(-c2cc3nccc(Oc4ccc(NC(=S)NC(=O)Cc5ccccc5)cc4F)c3s2)nc1
250 to 500	COCCNCCc1ccc(-c2cc3nccc(Oc4ccc(NC(=O)CC(=O)Nc5ccccc5)cc4F)c3s2)cc1
< 250	COCCNCc1cnc(-c2cc3nccc(Oc4ccc(NC(=O)C5(C(=O)Nc6ccccc6)CC5)cc4F)c3s2)n1C
< 250	COCCNCc1ccc(-c2cc3nccc(Oc4ccc(NC(=O)CC(=O)Nc5ccccc5)cc4F)c3s2)nc1
< 250	COCCNCc1ccc(-c2cc3nccc(Oc4ccc(NC(=O)CC(=O)Nc5ccc(F)cc5)cc4F)c3s2)nc1

target: recombinant human c-Met/HGF receptor (Homo sapiens, UniProt P08581); test: In vitro receptor tyrosine kinase assay (DELFIA), c-Met/HGF receptor; details: not given
Sequence (P08581 1078-1337): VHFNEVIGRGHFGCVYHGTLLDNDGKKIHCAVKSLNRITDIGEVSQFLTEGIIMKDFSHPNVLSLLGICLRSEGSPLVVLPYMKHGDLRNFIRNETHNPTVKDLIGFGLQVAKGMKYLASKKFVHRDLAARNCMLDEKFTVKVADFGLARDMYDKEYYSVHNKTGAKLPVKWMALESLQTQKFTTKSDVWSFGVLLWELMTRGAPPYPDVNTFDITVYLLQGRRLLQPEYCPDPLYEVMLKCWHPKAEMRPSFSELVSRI

IC50 [nM]	Structure (SMILES)
< 250	COCCNCc1ccc(-c2cc3nccc(Oc4ccc(NC(=S)NC(=O)Cc5ccccc5OC)cc4F)c3s2)cc1
< 250	O=C(Nc1ccccc1)C1(C(=O)Nc2ccc(Oc3ccnc4cc(-c5ccc(CNCC(F)(F)F)cc5)sc34)c(F)c2)CC1
< 250	COCCNCc1ccc(-c2cc3nccc(Oc4ccc(NC(=S)NC(=O)Cc5ccccc5)cc4F)c3s2)nc1
< 250	COCCNCCc1ccc(-c2cc3nccc(Oc4ccc(NC(=O)CC(=O)Nc5ccccc5)cc4F)c3s2)cc1
< 250	COCCNCc1cnc(-c2cc3nccc(Oc4ccc(NC(=O)C5(C(=O)Nc6ccccc6)CC5)cc4F)c3s2)n1C
< 250	COCCNCc1ccc(-c2cc3nccc(Oc4ccc(NC(=O)CC(=O)Nc5ccccc5)cc4F)c3s2)nc1
< 250	COCCNCc1ccc(-c2cc3nccc(Oc4ccc(NC(=O)CC(=O)Nc5ccc(F)cc5)cc4F)c3s2)nc1
< 250	COCCNCc1cccc(-c2cc3nccc(Oc4ccc(NC(=O)Nc5cc(C(F)(F)F)ccc5F)cc4F)c3s2)n1
> 1000	COCCN(Cc1cnc(-c2cc3nccc(Oc4ccc(NC(=O)NC5CC5)cc4F)c3s2)n1C)C(=O)OCc1ccccc1
250 to 500	COCCNCc1cccc(-c2cc3nccc(Oc4ccc(NC(=O)NC5CC5)cc4F)c3s2)n1
250 to 500	COCCNCc1cnc(-c2cc3nccc(Oc4ccc(NC(=O)NC5CC5)cc4F)c3s2)n1C
